US11434227B2, “Broad spectrum antibacterial activity of novel bisbenzimidazoles targeting topoisomerase IA and the synergistic composition of bisbenzimidazole with efflux pump inhibitors against pathogenic bacteria” (Jawaharlal Nehru University (JNU), priority 2016, dated 2022)
≈ marks a conversion by molar mass, not a printed value.

Experiments:
[1] = biological target: E. coli Topoisomerase IA (Escherichia coli, UniProt P06612); test: Topoisomerase IA cleavage and religation assay; format: biochemical; conditions: 0.12-2 μM DMA, 5′-32P labeled ssDNA
Chain of E. coli Topoisomerase IA (P06612 whole entry): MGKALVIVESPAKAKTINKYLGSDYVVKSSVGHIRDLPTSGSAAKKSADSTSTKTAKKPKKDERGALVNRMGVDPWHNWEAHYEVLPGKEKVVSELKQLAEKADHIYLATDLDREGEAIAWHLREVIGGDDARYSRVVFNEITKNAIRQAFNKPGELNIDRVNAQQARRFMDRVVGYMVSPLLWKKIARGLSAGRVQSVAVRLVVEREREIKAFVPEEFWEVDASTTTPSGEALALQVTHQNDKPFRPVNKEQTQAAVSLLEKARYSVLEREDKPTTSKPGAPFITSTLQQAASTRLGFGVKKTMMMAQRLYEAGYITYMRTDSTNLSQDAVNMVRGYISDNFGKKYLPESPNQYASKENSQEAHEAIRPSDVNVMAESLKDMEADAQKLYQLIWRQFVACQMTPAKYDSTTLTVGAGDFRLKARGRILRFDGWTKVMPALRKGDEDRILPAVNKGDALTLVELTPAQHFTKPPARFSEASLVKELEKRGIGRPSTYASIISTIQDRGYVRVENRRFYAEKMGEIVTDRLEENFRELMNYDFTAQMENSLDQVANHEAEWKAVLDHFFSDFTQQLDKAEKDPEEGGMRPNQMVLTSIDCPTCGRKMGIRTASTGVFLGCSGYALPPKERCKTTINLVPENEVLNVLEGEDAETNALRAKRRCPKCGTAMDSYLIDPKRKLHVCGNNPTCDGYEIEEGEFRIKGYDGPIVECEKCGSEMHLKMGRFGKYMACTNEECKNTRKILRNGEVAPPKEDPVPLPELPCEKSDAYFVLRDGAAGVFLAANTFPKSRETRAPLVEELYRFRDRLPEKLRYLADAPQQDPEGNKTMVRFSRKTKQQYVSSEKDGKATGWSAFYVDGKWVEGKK
Description: Compounds at different concentrations were added to DNA cleavage reaction mixtures (20 μl) containing 50 mM TrisHCl, pH 7.5, 2 mM MgCl2 0.2 mM DTT, 0.5 mM EDTA, 30 μg/ml BSA, 25 μg/ml of pHOT1 having specific site for DNA, 40 units of E. coli Topoisomerase IA and ligands was incubated at 37° C. for 30 min. The reactions was then terminated by adding 1% SDS and 150 μg/m Proteinase K, and incubated further for 1 h at 37° C. The DNA samples was electrophoresed in 1% agarose gel in 0.5×TBE. Ethidium bromide at a finial concentration of 0.5 μg/ml was included in the gel to resolve slowly migrating nicked product (cleavable complex) from the supercoiled DNA molecules.

[2] = biological target: E. coli Topoisomerase IA (EcTopoIA) (Escherichia coli, UniProt P06612); conditions: reference 5; cited from earlier work
Chain of E. coli Topoisomerase IA (EcTopoIA) (P06612 whole entry): as above

[3] = system: E. coli DH5α; test: Susceptibility (MIC, PAE, MBC), broth microdilution
Description: (§1) MICs were determined by the broth microdilution method according to CLSI methods (Clinical and Laboratory Standards Institute, 2005). Inoculants were incubated at 37° C. on cation adjusted Mueller Hinton (MH) Broth for 18 to 24 h. Compound were dissolved in media to 10 doubling dilutions from 128 to 0.125 μg/mL. All the bacterial strains were grown in 96 well plate with low evaporation lid (Falcon, Becton Dickinson) in presence of derivatives of benzimidazoles at 0.125, 0.25, 0.5, 1, 2, 4, 8, 16, 32, 64, 128, 256 μg/mL concentrations. […] Plates were read by Tecan Micro-plate Reader at 600 nm.

[4] = system: Escherichia coli (ATCC 25922); test: as above
Description: as §1

[5] = system: E. coli 72^R; test: as above; conditions: Escherichia coli
[6] = system: E. coli 118^R; test: as above
[7] = system: E. coli 85^R; test: as above
Description: as §1

[8] = system: E. coli 360^R; test: as above
Description: as §1

[9] = system: E. coli 451^R; test: as above
Description: as §1

[10] = system: E. coli 59^R; test: as above
Description: as §1

[11] = system: E. coli 81^R; test: as above
Description: as §1

[12] = system: E. coli 132^R; test: as above
Description: as §1

[13] = system: E. coli 151^R; test: as above
Description: as §1

[14] = system: E. coli 401^R; test: as above
Description: as §1

[15] = system: E. coli 555^R; test: as above
Description: as §1

For COc1ccc(-c2nc3cc(-c4nc5ccc(N6CCN(C)CC6)cc5[nH]4)ccc3[nH]2)cc1OC [DMA, 3,4-Dimethoxyphenyl bisbenzimidazole, reference compound], the “DNA cleavage product formed by EcTopo1A” value [1] is listed as “increased the DNA cleavage product formed by EcTopo1A”, the target specificity [2] is listed as “specific Escherichia coli Topoisomerase IA poison inhibitor over Gyrase, Human Topoisomerase I and Human Topoisomerase II” and the PAE ([3]; E. coli DH5α) is listed as 20.8 h. It also gave an MBC ([3]; Escherichia coli) of 16 µM (≈ 7.5 µg/mL), an MIC ([3]; Escherichia coli) of 3.74 µg/mL (≈ 7.98 µM) and a PAE ([4]; ATCC 25922) of 22.3 h. For the same compound, the MBC ([4]; Escherichia coli, ATCC25922) was 64 µM (≈ 30 µg/mL), the MIC ([4]; Escherichia coli, ATCC25922) was 15 µg/mL (≈ 32 µM) and the MBC [5] was 16 µM (≈ 7.5 µg/mL). The MIC [5] was 3.74 µg/mL (≈ 7.98 µM), the PAE ([6]; E. coli 118^R) was 24 h and the MBC ([6]; Escherichia coli) was 16 µM (≈ 7.5 µg/mL). The MIC ([6]; Escherichia coli) was 3.74 µg/mL (≈ 7.98 µM), the PAE ([7]; E. coli 85^R) was 24 h and the MBC ([7]; Escherichia coli) was 16 µM (≈ 7.5 µg/mL). The MIC ([7]; Escherichia coli) was 3.74 µg/mL (≈ 7.98 µM), the PAE ([8]; E. coli 360^R) was 24 h and the MBC ([8]; Escherichia coli) was 16 µM (≈ 7.5 µg/mL). For the same compound, the MIC ([8]; Escherichia coli) was 3.74 µg/mL (≈ 7.98 µM), the PAE ([9]; E. coli 451^R) was 22 h and the MBC ([9]; Escherichia coli) was 16 µM (≈ 7.5 µg/mL). For the same compound, the MIC ([9]; Escherichia coli) was 3.74 µg/mL (≈ 7.98 µM), the PAE ([10]; E. coli 59^R) was 1.6 h and the MBC ([10]; Escherichia coli) was 32 µM (≈ 15 µg/mL). For the same compound, the MIC ([10]; Escherichia coli) was 7.49 µg/mL (≈ 16 µM), the PAE ([11]; E. coli 81^R) was 23.6 h and the MBC ([11]; Escherichia coli) was 32 µM (≈ 15 µg/mL). The MIC ([11]; Escherichia coli) was 7.49 µg/mL (≈ 16 µM), the PAE ([12]; E. coli 132^R) was 24 h and the MBC ([12]; Escherichia coli) was 32 µM (≈ 15 µg/mL). For the same compound, the MIC ([12]; Escherichia coli) was 7.49 µg/mL (≈ 16 µM), the PAE ([13]; E. coli 151^R) was 21.6 h and the MBC ([13]; Escherichia coli) was 32 µM (≈ 15 µg/mL). The MIC ([13]; Escherichia coli) was 7.49 µg/mL (≈ 16 µM), the PAE ([14]; E. coli 401^R) was 16 h and the MBC ([14]; Escherichia coli) was 64 µM (≈ 30 µg/mL). The MIC ([14]; Escherichia coli) was 15 µg/mL (≈ 32 µM), the PAE ([15]; E. coli 555^R) was 24 h and the MBC ([15]; Escherichia coli) was 64 µM (≈ 30 µg/mL). For the same compound, the MIC ([15]; Escherichia coli) was 15 µg/mL (≈ 32 µM).
